In patent publication US20180128815A1, “METHOD OF SCREENING AN AGENT FOR INHIBITING RECURRENCE OR METASTASIS OF BREAST CANCER” (GACHON UNIVERSITY OF INDUSTRY-ACADEMIC COOPERATION …, priority 2014, published 2018):

Assays:
Assay type in all cases: cell-based
[1] = test system: 4T1 murine breast cancer cell line (suspending culture, cancer stem cells); assay: RTQ-PCR of stem cell marker genes in suspension-cultured 4T1 cells with or without Wnt signaling inhibitor; settings: 1 μM applied 4 times, once in two days, 8 days suspending culture
Procedure: Then, the 4T1 murine breast cancer cell line was added with a DMEM medium containing 20 ng/mL of EGF, 20 ng/mL of bFGF, 4 μg/mL of heparin, and B27, and cultured via suspending culture at 37° C. with […] for 7 days to obtain a culture product in a spherical form.
First, 4T1 murine breast cancer cell line was cultured via the suspending culturing method in the same manner as in Example 1-1 for 8 days under the condition of with or without the treatment of the Wnt signaling inhibitor (CWP232228, JW Pharmaceutical, Korea). In particular, the Wnt signaling inhibitor was applied a total of 4 times once in two days at a concentration of 1 μM.
Then, the thus obtained culture products were subjected to RNeasy Plus Mini Kit (Qiagen Inc, Valencia, Calif.) and the total RNA was extracted from each of the culture products. The thus-extracted each of the total RNA was subjected to random hexamer and ReverAid H Minus First Strand cDNA Synthesis Kit (Thermo scientific) to synthesize their respective cDNAs. […] The data obtained via RTQ-PCR was analyzed and, based on the 2-deltadelta ct values among the respective cells cultured, the genes with at least a 2-fold difference and a P value<0.05 were selected. […]

[2] = test system: 4T1 murine breast cancer cell line; assay: IGF1 immunofluorescence staining, 4T1 cells with or without Wnt signaling inhibitor
Procedure: (§1) In order to confirm the expression level of IGF1 gene, one of the five genes discovered above, within a cell, the 4T1 murine breast cancer cell line and MCF7 human breast cancer cell line were cultured via adhesion culture method and suspending culture method in the same manner as in Example 1 under the condition of with or without the treatment of the Wnt signaling inhibitor (CWP232228, JW Pharmaceutical, Korea) and thereby obtained the respective culture products.
(§2) The thus obtained respective culture products were added with mouse anti-IGF1 antibodies (Milipore, cat. #05-172) to perform a primary reaction, and then added with anti-mouse IgG antibodies (Invitrogen cat.A11001) to perform a secondary reaction, thereby performing an immunofluorescence staining regarding the IGF1 gene, which was observed under an optical microscope (Zeiss LSM 510) and the expression level of IGF1 was measured (FIG. 3).

[3] = test system: MCF7 human breast cancer cell line; assay: IGF1 immunofluorescence staining, MCF7 cells with or without Wnt signaling inhibitor
Procedure: as §1, §2

[4] = adhesion culture, regardless of treatment
[5] = suspending culture (cancer stem cells)

Compound: C=CCN1CC(=O)N2[C@@H](Cc3ccc(OP(=O)([O-])[O-])cc3)C(=O)N(Cc3cccc4cn(C)nc34)C[C@@H]2N1C(=O)NCc1ccccc1.[Na+].[Na+] [CWP232228]
- difference in expression of IGF1, Id2, MMP2, MMP9 and Wnt5a genes (2-deltadelta ct, Stem cell PCR array) treated vs untreated ([1]; P value<0.05): ≥ 2 fold
- expression of IGF1, Id2, MMP2, MMP9 and Wnt5a genes by RTQ-PCR with specific primers (FIG. 2) ([1]; treated vs untreated): significant difference in their expression
- IGF1 gene expression (immunofluorescence, FIG. 3) [2, 4]: not expressed
- level of IGF1 gene expression (immunofluorescence, FIG. 3) [2, 5]: deceased
- IGF1 gene expression (immunofluorescence, FIG. 3) [3, 4]: not expressed
- level of IGF1 gene expression (immunofluorescence, FIG. 3) [3, 5]: deceased
